For one assay, the system named is E. coli ATCC 25922. The assay is described as follows: MIC, E. coli ATCC 25922. It counts as cell-based. As to conditions: Alamar Blue read after overnight incubation at 35° C.; for MIC: Escherichia coli, ATCC25922, E. coli; for MIC Ec: E. coli. (In general: Alamar Blue is a resazurin reagent that responds to reducing activity.)
In the next assay the test system is S. aureus ATCC 13709. The assay is described as follows: MIC, S. aureus ATCC 13709 (Alamar Blue broth microdilution). The assay is classed as cell-based. As to conditions: Alamar Blue read after overnight incubation at 35° C.; for MIC: Staphylococcus aureus, ATCC13709, S. aureus; for MIC Sa: S. aureus.

Converted amounts (≈) assume the structure as drawn. Bounds are passed on as bounds.

In the case of `CNc1cc(F)cc2c1[nH]c1nc(Sc3cnc4ccc[n+]([O-])c4c3)nc(N3CC(N)C4(CC4)C3)c12` (centres unmarked) [1.63], the MIC against E. coli ATCC 25922 and against S. aureus ATCC 13709 was ≤ 0.5 µg/mL throughout.

As to `CNc1cc(F)cc2c1[nH]c1nc(Sc3cnc4ccc[n+]([O-])c4c3)nc(N3CCC4(CC4N)C3)c12` (centres unmarked) [1.64], the MIC against E. coli ATCC 25922 and against S. aureus ATCC 13709 was ≤ 0.5 µg/mL throughout.

As for `CNc1cc(F)cc2c1[nH]c1nc(Sc3cnc4ccc[n+]([O-])c4c3)nc(N3CCC4(CC4N)C3)c12` (centres unmarked) [1.65], the “MIC Ec” value in the assay with E. coli ATCC 25922 is ≤0.5 µg/mL. In addition, in the assay with S. aureus ATCC 13709, the “MIC Sa” value is ≤0.5 µg/mL.

Take `CNc1cccc2c1[nH]c1nc(Sc3cnc4ccc[n+]([O-])c4c3)nc(N3CC4C(N)C4C3)c12` (centres unmarked) [1.66]: the “MIC Ec” value with E. coli ATCC 25922 is ≤0.5 µg/mL. Also, in the assay on S. aureus ATCC 13709, the “MIC Sa” value is ≤0.13 µg/mL.

`CNc1cccc2c1[nH]c1nc(Sc3cnc4cccnc4c3)nc(N3CCN(C(C)=O)CC3)c12` [1.67]: the MIC is > 64 µg/mL in the assay with E. coli ATCC 25922 and ≤ 0.5 µg/mL with S. aureus ATCC 13709.

As to `CNc1cccc2c1[nH]c1nc(Sc3cnc4cccnc4c3)nc(N3C[C@H](N)C[C@@H]3CO)c12` [1.68], the MIC against E. coli ATCC 25922 is 32 µg/mL (≈ 67.7 µM); with S. aureus ATCC 13709, 16 µg/mL (≈ 33.9 µM).

Turning to `CNc1cccc2c1[nH]c1nc(Sc3cnc4cccnc4c3)nc(N3CCN(C(=O)C4CCCO4)CC3)c12` (centres unmarked) [1.69], the MIC is 8 µg/mL (≈ 14.8 µM) against E. coli ATCC 25922 and ≤ 0.5 µg/mL in the assay with S. aureus ATCC 13709.

With `CNc1cccc2c1[nH]c1nc(Sc3cnc4cccnc4c3)nc(N3CCC(C(O)c4cccs4)CC3)c12` (centres unmarked) [1.70], the MIC in the assay on E. coli ATCC 25922 is > 32 µg/mL; in the assay with S. aureus ATCC 13709, 1 µg/mL (≈ 1.81 µM).

As for `CNc1ccc(C)c2c1[nH]c1nc(Sc3cnc4ccc[n+]([O-])c4c3)nc(N3CC(N)C4(CC4)C3)c12` (centres unmarked) [1.72], the MIC against E. coli ATCC 25922 is 1 µg/mL (≈ 2.01 µM); against S. aureus ATCC 13709, ≤ 0.5 µg/mL.

With `CNc1ccc(C)c2c1[nH]c1nc(Sc3cnc4ccc[n+]([O-])c4c3)nc(N3CC4C(N)C4C3)c12` (centres unmarked) [1.73], the MIC was 8 µg/mL (≈ 16.5 µM) against E. coli ATCC 25922 and ≤ 0.5 µg/mL with S. aureus ATCC 13709.

In the case of `CNc1cccc2c1[nH]c1nc(Sc3ccc4ccc(C(=O)O)nc4c3)nc(N3CC4C(N)C4C3)c12` (centres unmarked) [1.74], the figures for the MIC against E. coli ATCC 25922 and in the assay with S. aureus ATCC 13709 were > 64 µg/mL and 4 µg/mL (≈ 8.04 µM), respectively.

`COc1cccc2c1[nH]c1nc(Sc3cnc4cccnc4c3)nc(N3CC4C(N)C4C3)c12` (centres unmarked) [1.75]: the MIC was > 64 µg/mL against E. coli ATCC 25922 and ≤ 0.5 µg/mL in the assay on S. aureus ATCC 13709.

In the case of `COc1cccc2c1[nH]c1nc(Sc3cnc4nccnc4c3)nc(N3CC4C(N)C4C3)c12` (centres unmarked) [1.76], the MIC is > 64 µg/mL against E. coli ATCC 25922 and 1 µg/mL (≈ 2.19 µM) in the assay on S. aureus ATCC 13709.

Consider `COc1cccc2c1[nH]c1nc(Sc3cnc4ccc[n+]([O-])c4c3)nc(N3CC(N)C3)c12` [1.77], for which the MIC in the assay with E. coli ATCC 25922 was > 64 µg/mL; with S. aureus ATCC 13709, 2 µg/mL (≈ 4.49 µM).

As for `COc1cccc2c1[nH]c1nc(Sc3cnc4ccc[n+]([O-])c4c3)nc(N3CC[C@@H](N)C3)c12` [1.78], the figures for the MIC with E. coli ATCC 25922 and in the assay with S. aureus ATCC 13709 were 64 µg/mL (≈ 139 µM) and ≤ 0.5 µg/mL, respectively.

`CNNc1cc(F)cc2c1[nH]c1nc(Oc3cnc(C)nc3)nc(N3CC4C(N)C4C3)c12` (centres unmarked) [2.1]: the “MIC Ec” value in the assay with E. coli ATCC 25922 was >16 µg/mL. In addition, the “MIC Sa” value with S. aureus ATCC 13709 is ≤0.5 µg/mL.

As for `CCc1cc(F)cc2c1[nH]c1nc(Oc3cncnc3)nc(N3CC4C(N)C4C3)c12` (centres unmarked) [2.2], the values for the MIC with E. coli ATCC 25922 and in the assay with S. aureus ATCC 13709 were 4 µg/mL (≈ 9.87 µM) and 2 µg/mL (≈ 4.93 µM), respectively.

With `CCc1cc(F)cc2c1[nH]c1nc(Oc3cnc(C)nc3)nc(N3CC(N)C4(CC4)C3)c12` (centres unmarked) [2.3], the figures for the MIC in the assay with E. coli ATCC 25922 and against S. aureus ATCC 13709 were 16 µg/mL (≈ 36.9 µM) and 1 µg/mL (≈ 2.31 µM), respectively.

Regarding `CCc1cc(F)cc2c1[nH]c1nc(Oc3cnc(C)nc3)nc(N3CC4CC(N)C4C3)c12` (centres unmarked) [2.4], the MIC against E. coli ATCC 25922 is 1 µg/mL (≈ 2.31 µM); in the assay with S. aureus ATCC 13709, ≤ 0.5 µg/mL.

Regarding `CCc1cc(F)cc2c1[nH]c1nc(Oc3cncnc3)nc(N3CC4CC(N)C4C3)c12` (centres unmarked) [2.5], the “MIC Ec” value against E. coli ATCC 25922 was 2 µg/mL (≈ 4.77 µM). Further, the “MIC Sa” value in the assay with S. aureus ATCC 13709 is ≤0.5 µg/mL.

Regarding `Cc1cc(F)cc2c1[nH]c1nc(Oc3cncnc3)nc(N3CC4C(N)C4C3)c12` (centres unmarked) [2.7], the MIC against E. coli ATCC 25922 is > 16 µg/mL; against S. aureus ATCC 13709, 4 µg/mL (≈ 10.2 µM).

On to `Nc1cccc2c1[nH]c1nc(Oc3cnc4cccnc4c3)nc(N3CC4C(N)C4C3)c12` (centres unmarked) [2.8], for which, in the assay with E. coli ATCC 25922, the “MIC Ec” value is >64 µg/mL. The “MIC Sa” value with S. aureus ATCC 13709 was 16 µg/mL (≈ 37.7 µM).

As for `Cc1ncc(Oc2nc(N3CC(N)C4(CC4)C3)c3c(n2)[nH]c2c(N)cc(F)cc23)cn1` (centres unmarked) [2.9], the “MIC Ec” value with E. coli ATCC 25922 is 16 µg/mL (≈ 38.1 µM). The “MIC Sa” value against S. aureus ATCC 13709 is 16 µg/mL (≈ 38.1 µM).

On to `COc1cccc2c1[nH]c1nc(Oc3cncnc3)nc(N3CCC(N)C3)c12` (centres unmarked) [2.10], for which the “MIC Ec” value in the assay with E. coli ATCC 25922 turned out to be 32 µg/mL (≈ 84.8 µM). In addition, the “MIC Sa” value in the assay on S. aureus ATCC 13709 was determined as 2 µg/mL (≈ 5.3 µM).

For the molecule `COc1cccc2c1[nH]c1nc(Oc3cncnc3)nc(N3CCC(NC(C)=O)C3)c12` (centres unmarked) [2.11], the “MIC Ec” value against E. coli ATCC 25922 is >64 µg/mL. The “MIC Sa” value in the assay on S. aureus ATCC 13709 is 4 µg/mL (≈ 9.54 µM).

With `COc1cccc2c1[nH]c1nc(Oc3cccc(C#N)c3)nc(N3CC4C(N)C4C3)c12` (centres unmarked) [2.12], the “MIC Ec” value in the assay with E. coli ATCC 25922 was >64 µg/mL. In addition, the “MIC Sa” value with S. aureus ATCC 13709 turned out to be 16 µg/mL (≈ 38.8 µM).

On to `COc1cccc2c1[nH]c1nc(Oc3cncnc3)nc(N3CC4C(N)C4C3)c12` (centres unmarked) [2.13], for which, in the assay with E. coli ATCC 25922, the “MIC Ec” value amounted to 64 µg/mL (≈ 164 µM). Besides, the “MIC Sa” value with S. aureus ATCC 13709 was 2 µg/mL (≈ 5.14 µM).

Regarding `COc1cccc2c1[nH]c1nc(Oc3cnc4cccnc4c3)nc(N3CC4C(N)C4C3)c12` (centres unmarked) [2.14], the “MIC Ec” value in the assay on E. coli ATCC 25922 is >64 µg/mL. In the assay on S. aureus ATCC 13709, the “MIC Sa” value was found to be 1 µg/mL (≈ 2.28 µM).

As usually defined, the MIC is the least concentration at which growth counts as inhibited. Read a high MIC as a less susceptible organism.

The values above are taken from patent US10858360B2, “Tricyclic gyrase inhibitors” (priority 2011, dated 2020).
